Values joined by “and” are separate entries in the source; they are usually repeats but may differ in a detail not shown here. Equal values may be shown once. Read-outs that look alike come from different tables or passages of the source.
Key:
ULK2 = molecular target: T1, ULK2 (Homo sapiens, UniProt Q8IYT8); assay: SelectScreen kinase assay
T1 sequence (Q8IYT8 1-1036): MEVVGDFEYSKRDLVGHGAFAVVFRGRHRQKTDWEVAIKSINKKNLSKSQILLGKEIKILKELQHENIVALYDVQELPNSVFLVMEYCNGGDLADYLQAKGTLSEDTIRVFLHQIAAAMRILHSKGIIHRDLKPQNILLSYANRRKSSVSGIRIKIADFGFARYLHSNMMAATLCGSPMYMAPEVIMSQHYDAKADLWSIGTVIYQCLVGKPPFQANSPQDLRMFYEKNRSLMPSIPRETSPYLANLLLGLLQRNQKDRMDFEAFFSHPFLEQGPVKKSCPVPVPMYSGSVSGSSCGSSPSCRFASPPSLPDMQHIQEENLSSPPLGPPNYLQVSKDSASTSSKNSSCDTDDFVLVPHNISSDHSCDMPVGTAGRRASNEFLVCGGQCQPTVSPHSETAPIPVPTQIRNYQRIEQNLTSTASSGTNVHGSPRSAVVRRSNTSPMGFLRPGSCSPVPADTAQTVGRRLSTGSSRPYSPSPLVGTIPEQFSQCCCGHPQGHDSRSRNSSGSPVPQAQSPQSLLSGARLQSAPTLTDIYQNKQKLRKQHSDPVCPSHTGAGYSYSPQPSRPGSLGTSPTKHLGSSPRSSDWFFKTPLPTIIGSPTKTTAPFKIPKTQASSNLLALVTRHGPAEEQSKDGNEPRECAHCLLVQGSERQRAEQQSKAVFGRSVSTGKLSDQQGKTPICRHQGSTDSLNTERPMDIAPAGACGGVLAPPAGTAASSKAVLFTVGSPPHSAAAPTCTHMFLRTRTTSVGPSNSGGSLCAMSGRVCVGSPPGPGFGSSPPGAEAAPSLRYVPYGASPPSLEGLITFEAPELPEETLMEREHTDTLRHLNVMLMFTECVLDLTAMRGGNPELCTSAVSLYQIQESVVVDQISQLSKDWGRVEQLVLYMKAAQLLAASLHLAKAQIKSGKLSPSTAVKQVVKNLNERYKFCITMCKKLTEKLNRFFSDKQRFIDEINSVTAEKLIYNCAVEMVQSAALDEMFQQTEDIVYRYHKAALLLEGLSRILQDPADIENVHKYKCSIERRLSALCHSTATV
Experimental: (§3) Selectivity profiling assays were performed by the Invitrogen SelectScreen™ Services. […] The concentration of ATP was selected to be equal to the KM, unless indicated otherwise.

CDC42 BPA (MRCKA) = CDC42 BPA (MRCKA) (Homo sapiens, UniProt Q5VT25); assay: SelectScreen kinase assay
Experimental: as §3

FES^WT = molecular target: T2, FES^WT (Homo sapiens, UniProt P07332); assay: PamChip microarray peptide phosphorylation; type: biochemical; settings: Figure 7f, WT + WEL028, n 3
T2 construct: human FES cDNA encoding residues 448–822 or human FER cDNA encoding residues 448–820 was amplified by PCR; made in house; host or cells: E. coli BL21(DE3), co-expressing YopH phosphatase

CHEK1 (CHK1) = CHEK1 (CHK1) (Homo sapiens, UniProt O14757); assay: SelectScreen kinase assay; settings: 1 μM WEL028, 1 h preincubation
Experimental: as §3

WT HL-60 neutrophils = assay: Phagocytosis assay with GFP-expressing E. coli; type: cell-based, human; settings: Figure 7e, replicates, listed as WEL028
Experimental: (§1) HL-60 cells were differentiated to neutrophils as described above. Cells were counted and centrifuged (200g, 5 min), followed by resuspension in growth medium without antibiotics. Cells were incubated with vehicle or inhibitor (from 1000x concentrated stocks in DMSO) for 1 h at 37 °C prior to infection (1×10^6 cells in 900 µL in 12-well plate). Meanwhile, E. coli B834(DE3) constitutively expressing GFP^A206K were grown in LB medium to an OD600 of 0.4–1.0, after which bacteria were centrifuged (2000g, 5 min), washed and resuspended in PBS to appropriate density. Neutrophils were infected by addition of bacteria at multiplicity of infection (MOI) of 30 unless stated otherwise. Cells were then incubated for 1 h at 37 °C unless stated otherwise, after which cells were resuspended and transferred to Eppendorf tubes, washed in FACS buffer (1 mL, 500g, 3 min) and fixed in 1% PFA in PBS (15 min, 4 °C, in the dark). Samples were further processed as described above.
(§2) Events (generally 20,000 per condition) were gated by forward and side scatter (cells), side scatter area (singlets) and the percentage of GFP-positive cells and GFP mean fluorescence intensity (MFI) were determined based on background fluorescence for non-infected cells. The GREEN-B channel (525/30 filter) was used to detect GFP.

[1] = test system: FES^S700C HL-60 neutrophils; assay: Phagocytosis assay with GFP-expressing E. coli; type: cell-based, human; settings: for Phagocytic index / GFP-positive cells (%) / Mean GFP intensity (RFU): listed as WEL028; for GFP-positive cells (%): Sup. Fig. 15a; for Mean GFP intensity (RFU): Sup. Fig. 15b
Experimental: as §1, §2

[2] = 1 h, 1 μM WEL028, 1 h preincubation

T2 sequence (P07332 448-822): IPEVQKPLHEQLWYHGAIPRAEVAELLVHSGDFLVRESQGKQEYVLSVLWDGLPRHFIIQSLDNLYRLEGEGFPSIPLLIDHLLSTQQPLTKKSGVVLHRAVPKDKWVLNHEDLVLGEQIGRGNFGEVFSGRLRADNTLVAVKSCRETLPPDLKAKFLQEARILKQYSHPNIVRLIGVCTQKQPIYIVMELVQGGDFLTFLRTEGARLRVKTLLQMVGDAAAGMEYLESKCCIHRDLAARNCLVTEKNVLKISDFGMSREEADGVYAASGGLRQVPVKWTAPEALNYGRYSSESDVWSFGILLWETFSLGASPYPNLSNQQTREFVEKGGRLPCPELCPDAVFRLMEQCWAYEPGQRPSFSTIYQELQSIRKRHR
CDC42 BPA (MRCKA), sequence (Q5VT25 whole entry): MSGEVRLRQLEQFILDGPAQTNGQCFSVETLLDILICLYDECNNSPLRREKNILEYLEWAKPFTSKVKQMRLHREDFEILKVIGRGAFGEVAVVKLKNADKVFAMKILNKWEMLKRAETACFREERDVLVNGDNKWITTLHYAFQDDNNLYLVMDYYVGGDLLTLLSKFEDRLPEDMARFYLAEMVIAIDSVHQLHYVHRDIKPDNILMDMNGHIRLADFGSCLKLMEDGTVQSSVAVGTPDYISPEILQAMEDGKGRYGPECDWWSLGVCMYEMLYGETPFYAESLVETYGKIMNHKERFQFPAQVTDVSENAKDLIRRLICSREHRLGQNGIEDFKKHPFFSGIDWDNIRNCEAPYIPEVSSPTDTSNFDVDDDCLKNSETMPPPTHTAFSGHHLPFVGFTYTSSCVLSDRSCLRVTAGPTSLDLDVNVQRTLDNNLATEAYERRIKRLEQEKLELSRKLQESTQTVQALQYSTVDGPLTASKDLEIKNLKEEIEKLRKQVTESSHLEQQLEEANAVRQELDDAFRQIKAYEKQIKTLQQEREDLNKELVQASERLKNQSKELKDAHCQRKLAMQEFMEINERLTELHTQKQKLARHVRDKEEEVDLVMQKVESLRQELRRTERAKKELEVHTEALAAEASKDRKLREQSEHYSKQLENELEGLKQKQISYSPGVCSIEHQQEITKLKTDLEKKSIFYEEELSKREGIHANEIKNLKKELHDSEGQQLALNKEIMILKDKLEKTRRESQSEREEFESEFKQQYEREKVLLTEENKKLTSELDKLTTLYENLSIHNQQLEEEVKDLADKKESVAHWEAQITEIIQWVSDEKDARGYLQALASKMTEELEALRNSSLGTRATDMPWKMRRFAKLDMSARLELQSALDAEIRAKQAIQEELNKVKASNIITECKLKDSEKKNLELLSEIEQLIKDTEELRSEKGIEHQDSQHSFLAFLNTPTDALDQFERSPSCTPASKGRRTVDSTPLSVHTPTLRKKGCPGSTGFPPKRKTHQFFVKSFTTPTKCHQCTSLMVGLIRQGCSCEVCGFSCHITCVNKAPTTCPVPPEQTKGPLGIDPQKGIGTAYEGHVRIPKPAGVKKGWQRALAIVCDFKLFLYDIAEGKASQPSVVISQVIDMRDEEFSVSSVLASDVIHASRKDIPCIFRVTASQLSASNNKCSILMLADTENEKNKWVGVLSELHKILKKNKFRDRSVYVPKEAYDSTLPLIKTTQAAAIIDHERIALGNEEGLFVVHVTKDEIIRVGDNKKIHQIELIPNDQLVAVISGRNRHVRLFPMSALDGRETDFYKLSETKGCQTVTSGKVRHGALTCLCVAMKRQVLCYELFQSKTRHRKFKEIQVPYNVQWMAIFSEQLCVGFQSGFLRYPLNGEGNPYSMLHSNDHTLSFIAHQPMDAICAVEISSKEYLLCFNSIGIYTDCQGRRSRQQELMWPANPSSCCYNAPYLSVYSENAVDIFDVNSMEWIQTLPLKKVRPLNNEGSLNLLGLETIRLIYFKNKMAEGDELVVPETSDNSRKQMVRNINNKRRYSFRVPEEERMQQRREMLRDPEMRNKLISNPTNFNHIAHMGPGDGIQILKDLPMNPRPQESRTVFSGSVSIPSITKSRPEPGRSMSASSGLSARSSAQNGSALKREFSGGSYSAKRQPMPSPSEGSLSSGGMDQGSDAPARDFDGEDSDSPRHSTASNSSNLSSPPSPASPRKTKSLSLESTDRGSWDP
CHEK1 (CHK1), sequence (O14757 whole entry): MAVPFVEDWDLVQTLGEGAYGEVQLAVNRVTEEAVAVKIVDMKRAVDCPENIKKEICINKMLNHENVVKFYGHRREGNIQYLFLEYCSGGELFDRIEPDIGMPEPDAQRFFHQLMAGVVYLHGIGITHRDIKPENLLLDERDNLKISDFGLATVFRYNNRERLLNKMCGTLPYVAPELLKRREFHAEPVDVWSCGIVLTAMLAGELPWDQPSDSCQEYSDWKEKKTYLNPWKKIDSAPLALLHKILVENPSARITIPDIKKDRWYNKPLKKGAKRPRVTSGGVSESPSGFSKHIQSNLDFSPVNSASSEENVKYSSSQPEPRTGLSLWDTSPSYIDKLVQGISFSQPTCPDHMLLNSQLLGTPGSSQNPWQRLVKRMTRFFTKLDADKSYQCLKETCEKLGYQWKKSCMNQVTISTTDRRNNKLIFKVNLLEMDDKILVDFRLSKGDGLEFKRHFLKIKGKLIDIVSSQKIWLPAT

C#CCOc1ccc(Nc2ncc(Cl)c(Nc3ccccc3NC(=O)C=C)n2)c(OC)c1 [Compound 6]
Inhibition at 1 µM (%) (ULK2; 1 µM, LanthaScreen Binding, listed as WEL028, 1 µM): 4% | inhibition at 1 µM (ULK2; [2]): 3% | inhibition at 1 µM (ULK2; read-out: Inhibition at 1 µM (%), 1 µM, LanthaScreen Binding): 2% | inhibition at 1 µM (CDC42 BPA (MRCKA); [2]): -7% | Inhibition at 1 µM (%) (CDC42 BPA (MRCKA); CDC42 BPA (MRCKA), 1 µM, ZLYTE, ATP Km app): -20% | Mean signal, time course (FES^WT; time 0 min): -37.0 | Mean signal, time course (FES^WT; time 5 min): 24.0 | Mean signal, time course (FES^WT; time 10 min): 80.0 | Mean signal, time course (FES^WT; time 15 min): 138.0 | Mean signal, time course (FES^WT; time 20 min): 193.0 | Mean signal, time course (FES^WT; time 25 min): 246.0 | Mean signal, time course (FES^WT; time 30 min): 301.0 | Mean signal, time course (FES^WT; time 35 min): 361.0 | Mean signal, time course (FES^WT; time 40 min): 414.0 | Mean signal, time course (FES^WT; time 45 min): 472.0 | Mean signal, time course (FES^WT; time 50 min): 524.0 | Mean signal, time course (FES^WT; time 55 min): 585.0 | Mean signal, time course (FES^WT; time 60 min): 641.0 | Inhibition (%) (CHEK1 (CHK1)): 0% | Phagocytic index (WT HL-60 neutrophils): 160.957 and 207.068 and 250.511 and 251.311 and 284.865 | Reduction of phagocytic index ([1]; 100 nM, 1 h, E. coli MOI 30, 1 h): 30–50% | Phagocytic index ([1]; Figure 7e, S700C, replicates): 145.478 and 171.315 and 187.921 and 222.417 and 183.286 | Phagocytic index ([1]; Figure 7i, replicates): 197.442 and 178.118 and 223.309 and 208.369 and 195.015 | Phagocytic index ([1]; MOI 0, Sup. Fig. 15d): 11.3713 and 7.7474 and 12.7423 | Phagocytic index ([1]; MOI 5, Sup. Fig. 15d): 256.754 and 179.658 and 258.748 | Phagocytic index ([1]; MOI 10, Sup. Fig. 15d): 353.426 and 268.67 and 311.603 | Phagocytic index ([1]; MOI 30, Sup. Fig. 15d): 419.958 and 366.26 and 418.025 | Phagocytic index ([1]; MOI 50, Sup. Fig. 15d): 485.281 and 414.473 and 534.485 | GFP-positive cells (%) ([1]; infection time 0 min): 18.616% and 19.116% and 23.8538% | Mean GFP intensity (RFU) ([1]; infection time 0 min): 251.299 RFU and 272.27 RFU and 265.594 RFU | Phagocytic index ([1]; infection time 0 min, Sup. Fig. 15c): 46.7819 and 52.047 and 63.3542 | GFP-positive cells (%) ([1]; infection time 15 min): 35.6181% and 40.0295% and 44.0403% | Mean GFP intensity (RFU) ([1]; infection time 15 min): 355.136 RFU and 341.544 RFU and 336.989 RFU | Phagocytic index ([1]; infection time 15 min, Sup. Fig. 15c): 126.493 and 136.719 and 148.411 | GFP-positive cells (%) ([1]; infection time 30 min): 53.551% and 63.4482% and 62.11% | Mean GFP intensity (RFU) ([1]; infection time 30 min): 496.403 RFU and 400.363 RFU and 431.37 RFU | Phagocytic index ([1]; infection time 30 min, Sup. Fig. 15c): 265.829 and 254.023 and 267.924 | GFP-positive cells (%) ([1]; infection time 60 min): 64.7116% and 74.5174% and 69.3761% | Mean GFP intensity (RFU) ([1]; infection time 60 min): 571.855 RFU and 482.086 RFU and 578.862 RFU | Phagocytic index ([1]; infection time 60 min, Sup. Fig. 15c): 370.057 and 359.238 and 401.592

Reference: PMC7316778 (Nature Communications, 2020)
